Data published in article PMC5242521 (PLoS ONE, 2017).
Read-outs that look alike come from different tables or passages of the source.

Assays:
Type in all cases: cell-based
OATP1B1 = molecular target: T1, OATP1B1 (Homo sapiens, UniProt Q9Y6L6); assay: OATP1B1 activity: E3S accumulation in CHO-OATP1B1 cells; conditions: for inhibition at 100 μM: human, pH 7.4
T1 construct: expressed in transfected cells; host or cells: CHO
T1 sequence (Q9Y6L6 1-691): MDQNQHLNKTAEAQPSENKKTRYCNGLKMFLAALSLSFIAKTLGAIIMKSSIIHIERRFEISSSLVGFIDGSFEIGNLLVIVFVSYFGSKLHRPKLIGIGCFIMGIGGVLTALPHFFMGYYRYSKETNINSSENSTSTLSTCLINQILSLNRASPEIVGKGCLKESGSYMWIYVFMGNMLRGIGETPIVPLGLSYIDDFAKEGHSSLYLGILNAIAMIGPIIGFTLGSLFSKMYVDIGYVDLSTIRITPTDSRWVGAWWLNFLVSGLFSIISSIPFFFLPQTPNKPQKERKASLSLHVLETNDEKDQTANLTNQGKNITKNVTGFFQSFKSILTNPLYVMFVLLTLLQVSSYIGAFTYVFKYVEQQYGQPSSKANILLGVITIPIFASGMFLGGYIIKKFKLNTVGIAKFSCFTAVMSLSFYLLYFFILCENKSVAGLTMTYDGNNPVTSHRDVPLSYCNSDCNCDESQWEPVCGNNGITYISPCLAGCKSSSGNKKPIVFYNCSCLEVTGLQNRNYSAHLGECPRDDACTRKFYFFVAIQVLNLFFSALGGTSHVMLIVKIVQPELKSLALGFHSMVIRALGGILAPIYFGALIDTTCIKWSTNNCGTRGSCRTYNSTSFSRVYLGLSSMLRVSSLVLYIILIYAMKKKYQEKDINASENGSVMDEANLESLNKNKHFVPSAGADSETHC
Experimental: (§1) The initial tested concentration of pyrethroids was 100 μM.

BCRP = molecular target: T2, BCRP (Homo sapiens, UniProt Q9UNQ0); assay: BCRP activity: Hoechst 33342 retention in HEK-BCRP cells; conditions: for inhibition at 90 min, 100 μM: human
T2 construct: expressed in transfected cells; host or cells: HEK293
T2 sequence (Q9UNQ0 1-655): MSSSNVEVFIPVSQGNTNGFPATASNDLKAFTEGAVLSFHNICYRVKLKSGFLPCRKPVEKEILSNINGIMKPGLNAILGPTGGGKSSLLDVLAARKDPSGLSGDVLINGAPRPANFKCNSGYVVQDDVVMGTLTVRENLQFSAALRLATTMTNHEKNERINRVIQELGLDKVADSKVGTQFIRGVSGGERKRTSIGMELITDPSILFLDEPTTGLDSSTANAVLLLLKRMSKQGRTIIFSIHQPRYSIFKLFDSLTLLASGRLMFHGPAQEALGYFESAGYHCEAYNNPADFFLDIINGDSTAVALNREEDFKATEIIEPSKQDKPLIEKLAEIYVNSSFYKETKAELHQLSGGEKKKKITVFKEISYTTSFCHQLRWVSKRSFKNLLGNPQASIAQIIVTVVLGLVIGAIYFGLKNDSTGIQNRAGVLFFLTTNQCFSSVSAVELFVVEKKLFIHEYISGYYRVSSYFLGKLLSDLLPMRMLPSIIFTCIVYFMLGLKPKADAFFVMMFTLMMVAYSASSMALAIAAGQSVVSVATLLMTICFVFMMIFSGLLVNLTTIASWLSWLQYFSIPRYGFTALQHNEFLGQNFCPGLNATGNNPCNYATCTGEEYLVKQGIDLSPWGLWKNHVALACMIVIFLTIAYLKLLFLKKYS
Experimental: For retention assay (used for BCRP activity), HEK-BCRP cells cultured in 48-well plates were first loaded at 37°C with transport assay (200 μL/well) containing 16.2 μM Hoechst 33342 for 30 min. After washing twice in PBS (200 μL/well/washing), cells were reincubated in Hoechst 33342-free transport assay medium (200 μL/well) at 37°C for 90 min in the absence or presence of pyrethroids or of the BCRP reference inhibitor fumitremorgin C used at 10 μM. Cells were next lysed in distilled water (155 μL/well) after washing twice in PBS (200 μL/well/washing). The cell lysate was finally used for determining cellular protein content and intracellular retention of Hoechst 33342 (by spectrofluorimetry: excitation and emission wavelengths were 355 and 460 nm, respectively), as described above.
as §1

OATP1B3 = molecular target: T3, OATP1B3 (Homo sapiens, UniProt Q9NPD5); assay: OATP1B3 activity: fluorescein accumulation in CHO-OATP1B3 cells; conditions: pyrethroid up to 100 μM
T3 construct: expressed in transfected cells; host or cells: CHO
T3 sequence (Q9NPD5 1-702): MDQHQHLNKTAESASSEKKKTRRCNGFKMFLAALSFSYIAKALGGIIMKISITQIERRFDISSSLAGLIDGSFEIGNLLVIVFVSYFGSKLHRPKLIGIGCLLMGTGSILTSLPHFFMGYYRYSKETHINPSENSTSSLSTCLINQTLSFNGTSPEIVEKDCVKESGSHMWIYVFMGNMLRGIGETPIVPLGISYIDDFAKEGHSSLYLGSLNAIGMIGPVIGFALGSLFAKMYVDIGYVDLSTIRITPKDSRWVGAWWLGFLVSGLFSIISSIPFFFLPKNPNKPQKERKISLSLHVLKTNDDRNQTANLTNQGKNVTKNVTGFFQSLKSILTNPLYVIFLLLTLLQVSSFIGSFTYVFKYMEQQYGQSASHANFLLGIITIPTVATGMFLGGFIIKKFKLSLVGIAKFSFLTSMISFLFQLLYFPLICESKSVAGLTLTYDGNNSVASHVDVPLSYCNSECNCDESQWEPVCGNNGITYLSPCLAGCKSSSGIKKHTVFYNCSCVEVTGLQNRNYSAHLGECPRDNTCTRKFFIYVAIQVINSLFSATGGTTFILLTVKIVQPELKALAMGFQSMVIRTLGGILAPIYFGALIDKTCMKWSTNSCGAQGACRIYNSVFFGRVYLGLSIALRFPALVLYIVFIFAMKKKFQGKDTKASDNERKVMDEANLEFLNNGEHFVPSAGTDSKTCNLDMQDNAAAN
Experimental: The effects of pyrethroids on activity of ABC and SLC transporters were determined through measuring cellular accumulation or retention of fluorescent or radiolabeled reference substrates for transporters, in the presence or absence of reference inhibitors, as previously described [41].
For accumulation assays (performed for all transporters, excepted BCRP), transporter-expressing cells usually cultured in 48-well plates were first incubated at 37°C with reference substrates in the absence (control) or presence of pyrethroids or reference inhibitors, in a well-defined transport assay medium [42], consisting of 136 mM NaCl, 5.3 mM KCl, 1.1mM KH2PO4, 0.8 mM MgSO4, 1.8 mM CaCl2, 10 mM HEPES, 11 mM D-glucose and adjusted to pH = 7.4 (excepted for MATE transporter assays, for which pH was set to 8.4). The nature of substrates and reference inhibitors and the incubation times with substrates, that varied according to the transporter, were selected in agreement with previous studies [41, 43] and are indicated in S3 Table. The total incubation volume with substrates was 200 μL/well. […]
Intracellular concentrations of reference substrates were initially expressed as fluorescence arbitrary units (for fluorescent dye substrates) or as moles (for radiolabeled substrates) and normalized to cellular protein content, determined by the Bradford method [44]. […]

Compound | IC50 (OATP1B1) | inhibition at 100 μM (OATP1B1) | IC50 (BCRP) | inhibition at 90 min, 100 μM (BCRP) | inhibition at 100 μM (OATP1B1; pyrethroid 100 μM, CHO-OATP1B1 cells, E3S, read-out: inhibition of OATP1B1 activity) | inhibition at 90 min, 100 μM (BCRP; pyrethroid 100 μM, HEK-BCRP cells, Hoechst 33342, read-out: inhibition of BCRP activity) | effect on OATP1B3 activity (OATP1B3) | effect on OATP1B3 activity (OATP1B3; listed as Tetramethrin)
C=CCC1=C(C)C(OC(=O)C2C(C=C(C)C)C2(C)C)CC1=O (stereo not shown) [allethrin] | 16.5 µM | > 85% | 42.5 µM | 83.9% |  |  |  | 
CC(C)=CC1C(C(=O)OCN2C(=O)C3=C(CCCC3)C2=O)C1(C)C (stereo not shown) [tetramethrin] | 5.7 µM |  | 72.5 µM |  | > 85% | 67.1% | failed to alter | No effect (up to 100 μM)
